Results on seven compounds are retold here after patent publication US12447121B2, “Composition for promoting the skin microbiome” (BEIERSDORF AG, priority 2020, dated 2025).

Entries after “also recorded” stand apart in the source; their conditions may differ.

Test [1] has as its system skin microbiome. The test is described as follows: In vivo volunteer study: microbial colony count of skin microbiome samples. Set-up: species or system human. The settings on record: applied in the form of a skin care composition to the facial skin (as worded in the summary). Here is the method:
An in vivo study with 31 volunteers was conducted to examine whether the growth-enhancing compounds that were found effective in the in vitro test can also promote cell growth of the microorganisms in the skin microbiome in vivo when applied to the skin in the form of a lotion. For this purpose, a carrier lotion was prepared to which the test compounds, i.e. the compounds identified as growth-enhancing in the in vitro assays of Example 1, were added. The test formulations were prepared by mixing the compounds to be tested into the carrier lotion. The test formulations were composed as follows: • Formulation 20: […] Carrier lotion+1% urea, 1% sodium Lactate, 1% caprylic/capric triglycerides […] For measuring the microbial colony count, the test site was rinsed with swabs ([…] GmbH, […], Germany) by 3×10 lanes using 2 ml rinsing buffer (12.49 g/L Na2HPO; 0.63 g/L KH2PO4 in molecular grade H2O) in 15 ml Falcon tubes. The sample material was then plated within 60 minutes after collection on Columbia-Sheep-Blood-Tween (COST) agar plates and subsequently incubated. […] After incubation, the bacterial colonies on agar plates were counted using the Countermat Flash.

Test [2] has as its system S. epidermidis. The test is described as follows: In vitro growth assay (OD, absorption at 600 nm). It counts as cell-based. The settings on record: CASO deficiency medium. Here is the method: Overnight cultures of S. epidermidis were inoculated in 20 ml CASO medium and incubated at 37° C. The culture was then diluted and adjusted to an OD600 of 0.25. From this suspension, the starting culture is prepared with a concentration of 5×10^5 CFU/ml by a 1:200 dilution in CASO deficiency medium. Subsequently, solutions containing the different nitrogen, carbon, and lipid sources were mixed with the start cultures and 200 μl/well were pipetted into a 96 well flat transparent plate, at least in triplets. The plate was placed in a Tecan Reader at 37° C. and Absorption was measured at 600 nm every hour over a period of 24-30 h.

In test [3] the test system is S. epidermidis. Kind of test: In vitro growth assay (plating, colony count). In kind it is cell-based. The settings on record: added to low nutrient medium, 37° C., plated and counted; FIGS. 1 and 2. Here is the method: Potential growth-enhancing compounds that are effective in the stabilization of the microbiome were tested by the following in vitro assay. Overnight cultures of S. epidermidis is inoculated in 20 ml CASO medium and incubated at 37° C. The culture was then diluted and adjusted to an OD600 of 0.25. From this suspension, the starting culture is prepared with a concentration of 5×10^5 CFU/ml by a 1:200 dilution in CASO deficiency medium. Subsequently, solutions containing the different active ingredients were mixed with the start cultures and incubated in a thermal mixer at 37° C. by shaking. Samples are taken at the respective time points for testing, diluted with NaCl and plated out on CASO plates using the spiral plater. The plates are incubated for 24 h at 37° C. and then counted.

As for `CC(=O)C(=O)O` [pyruvic acid], the “cell number of the resident bacteria” value in test [1] was “significantly increase”. On to `O=C(CO)[C@@H](O)[C@H](O)[C@H](O)CO` [Fructose, fructose], for which the “growth of S. epidermidis (summary in words of Tables 2 and 3)” value in test [2] is reported as “support the growth”.

maltodextrin: in test [2], the “growth of S. epidermidis (summary in words of Tables 2 and 3)” value is “support the growth”. For the compound `CC(O)C(=O)O` (centres unmarked) [Lactate, lactate], the “growth of S. epidermidis (summary in words of Tables 2 and 3)” value in test [2] is given as “support the growth”. Moreover, the “growth of S. epidermidis within 24 hours” value in test [3] is reported as “significant growth; also recorded: significantly promotes the growth”.

Turning to `CC(O)C(=O)O` (centres unmarked) [lactic acid], the “cell number of the resident bacteria” value in test [1] was “increase”. On to `OC[C@H]1O[C@@](CO)(O[C@H]2O[C@H](CO)[C@@H](O)[C@H](O)[C@H]2O)[C@@H](O)[C@@H]1O` [Sucrose, saccharose], for which the “growth of S. epidermidis (summary in words of Tables 2 and 3)” value in test [2] was “support the growth”. Consider `OC[C@H]1O[C@H](O[C@H]2[C@H](O)[C@@H](O)C(O)O[C@@H]2CO)[C@H](O)[C@@H](O)[C@@H]1O` (mixture of isomers) [Maltose, maltose], for which the “growth of S. epidermidis (summary in words of Tables 2 and 3)” value in test [2] is listed as “support the growth”.
